Patent publication US11986482B2, “Method of promoting antitumor or anti-cancer immunity” (City University of Hong Kong, priority 2021, dated 2024)
Entries after “also recorded” stand apart in the source; their conditions may differ.

What was measured:
PD-L1 [1] = test: PD-L1 internalization assay (surface anti-PD-L1 antibody labelling, Rab5 colocalization) in HeLa cells; assay type: cell-based; conditions: HeLa cells pretreated 3 h; Pitstop2 30 uM, Filipin III 5 mg/mL
Experimental: Without intending to be limited by theory, it is believed that the endosomal trafficking of PD-L1, a type I membrane protein, remains poorly studied thus far. In the fixed HeLa cells stained with anti-PD-L1 antibody, HeLa cells are plated on coverslips in 24-well plates and fixed after 24 h. Cells are then co-stained with antibodies against PD-L1 and Rab5, LAMP1, CD63, Rab27A, Rab11. […] Thus, inventors speculate that PD-L1 at the cell surface may be subjected to an active endosomal trafficking process. To monitor the PD-L1's endosomal trafficking process, inventors label the PD-L1 at the cell surface in the live cells with an anti-PD-L1 antibody on ice for 1 h. They then incubate the cells with the warm medium at 37° C. for the indicated times to initiate the internalization of the PD-L1 antibody complex, followed by the immunostaining of RAB5, EEA1, LAMP1, or RAB11. […] In addition, HeLa cells are pretreated with Fillilin III (5 mg/mL) or Pistop2 (30 uM) for 3 h, then stained with the anti-PD-L1 antibody on ice for 1 h. At the indicated times after being incubated with a warm medium at 37° C., the cells are fixed and stained with an anti-Rab5 antibody. […] Furthermore, Rab5-knockout HeLa cells are transfected with CD63-mcherry and stained with the anti-PD-L1 antibody on ice for 1 h. After being incubated for 1.5 h in a warm medium at 37° C., the cells are fixed and imaged.

PD-L1 [2] = test: Plasma membrane PD-L1 level in 4T1 cells (flow cytometry); assay type: cell-based, mouse; conditions: 4T1 cells, GW4869 10 μM with 6J1 1 μM
Experimental: (§1) The current PD-L1 and PD1 therapies apply PD-L1 or PD1 monoclonal antibodies to block the PD-L1/PD1 signaling, which results in cytotoxic T cells recognizing and killing the tumor cells. […] First, flow cytometry-based quantification of plasma membrane levels of PD-L1 in 4T1 cells treated with or without 6J1 (1 μM) for 24 h. 4T1 cells are treated with or without 6J1 (1 μM) for 24 h. The supernatant is collected, and the concentration of extracellular vesicle is determined using a Nanosight nanoparticle analyzer in FIG. 8b. The exosomes are also collected and subjected to western blot analysis of the EVs marker and PD-L1 in FIG. 8c.
Therefore, it is possible that the increased exosomal PD-L1 secretion induced by 6J1 may still suppress the tumor-infiltrating T cell cytotoxicity in vivo, even though 6J1 reduces the cell surface expression level of PD-L1 on the tumor cells. To evaluate the role of exosomal PD-L1 in the tumor microenvironment and tumor progression in mice, inventors knock out Rab27a in 4T1 cells to inhibit the secretion of exosomes. 4T1-shNC or 4T1-shRab27A cells are treated with or without 6J1 (1 μM). The supernatant is collected, and the concentration of extracellular vesicle is determined using a Nanosight nanoparticle analyzer. […] Inventors analyze the plasma membrane levels of PD-L1 in 4T1-shNC or 4T1-shRab27A cells treated with or without 6J1 (1 μM). […] Next, control or Rab27a-knockout 4T1 cells are orthotopically transplanted into syngeneic fat pads of female Balb/c. The mice are randomly divided (n=5 per group) and treated with either buffer or 6J1 (30 mg/kg, daily) via oral gavage. […] Inventors also perform the immunostaining of CD8 and Granzyme B in the tumor sections. […] Since enhanced antitumor immunity leads to increased apoptosis in tumors, inventors assess the levels of cleaved caspase3 (CCA3), one of the markers of apoptosis, in tumor sections as well.
Finally, inventors assess the combinatory effects of 6J1 with GW4869, an exosome secretion inhibitor, in the aforementioned orthotopic mammary carcinoma mouse models. […]

4T1 cells = test: Extracellular vesicle concentration, Nanosight nanoparticle analyzer, 4T1 cells; assay type: cell-based, mouse; conditions: 4T1 cells, GW4869 10 μM with 6J1 1 μM
Experimental: as §1
To assess whether the in vivo antitumor growth effect of 6J1 is related to its effect on PD-L1 in 4T1 cells, inventors knock out PD-L1 via CRISPR/Cas9 in 4T1 cells (FIG. 10a). 4T1-NC or 4T1-PD-L1 knockout cells are treated with or without 6J1 (1 μM) for 24 h. The supernatant is collected, and the concentration of extracellular vesicle is determined using a Nanosight nanoparticle analyzer. The exosomes are also collected and subjected to western blot analysis of the EVs marker and PD-L1. […] Inventors then transplant control or PD-L1-knockout 4T1 cells into the fat pad of syngeneic female Balb/c mice. The mice are randomly divided (n=5 per group) and treated with either buffer or 6J1 (30 mg/kg, daily) via oral gavage.
Therefore, it is possible that the increased exosomal PD-L1 secretion induced by 6J1 may still suppress the tumor-infiltrating T cell cytotoxicity in vivo, even though 6J1 reduces the cell surface expression level of PD-L1 on the tumor cells. To evaluate the role of exosomal PD-L1 in the tumor microenvironment and tumor progression in mice, inventors knock out Rab27a in 4T1 cells to inhibit the secretion of exosomes. 4T1-shNC or 4T1-shRab27A cells are treated with or without 6J1 (1 μM). The supernatant is collected, and the concentration of extracellular vesicle is determined using a Nanosight nanoparticle analyzer. […] Inventors analyze the plasma membrane levels of PD-L1 in 4T1-shNC or 4T1-shRab27A cells treated with or without 6J1 (1 μM). […]

PD-L1 [3] = test: Western blot of PD-L1 in total cell lysates and exosomes of HeLa cells; assay type: cell-based; conditions: HeLa cells, 48 h, Bafilomycin A1 10 nM, Torin 1 100 nM; for exosomal PD-L1 level: ionomycin 1 μM, 6J1 1 μM
Experimental: PD-L1 has been previously shown to be secreted outside the cell through exosomes. HeLa cells are plated on coverslips in 24-well plates and stained with the anti-PD-L1 antibody on ice for 1 h. At the indicated times after being incubated at a warm medium at 37° C., cells are fixed and stained with antibodies against CD63 or Rab27a. […] Cells are treated with or without ionomycin (1 μM) for 48 h. The supernatant is collected and subjected to western blot analysis. […] Since the amphisome, which is formed by the fusion of the autophagosome with the MVB/late endosome, has been implicated in extracellular vesicles secretion, and PD-L1 is found to be associated with LC3B during PD-L1 trafficking (FIG. 2a), inventors examine whether the autophagosome formation is involved in exosomal PD-L1 secretion. Thus, inventors knock out the expression of Rab27A, LC3B or ATG4B in HeLa cells and collect their supernatant respectively for western blot analysis.
Furthermore, HeLa cells are treated with or without Bafilomycin A1 (10 nM), or Torin 1 (100 nM) for 48 h. The cell lysates and supernatant are collected for western blot analysis. […] In contrast, Torin1, an autophagy activator, has little effect on total and exosomal PD-L1 levels (FIG. 2g). […] On the other hand, blockage on the fusion between lysosomes and late endosomes or autophagosomes may induce PD-L1 secretion via exosomes.
It has previously been shown that interfering with endosomal trafficking promotes exosome secretion. Moreover, PD-L1 has been reported to be enriched in exosomes and secreted outside the cell. Thus, inventors speculate that 6J1 may induce the secretion of the PD-L1 trapped in the endosomal compartments via exosomes. To determine whether 6J1 may induce the secretion of PD-L1 via exosomes, HeLa cells are treated with or without 6J1 (1 μM) for 24 h. The supernatant is collected. Inventors purify the exosomes from the supernatant of HeLa cells by sequential centrifugation. The concentration of extracellular vesicle is determined using a Nanosight nanoparticle analyzer. And HeLa cells are treated with or without 6J1 (1 μM) for 48 h. The cell and supernatant are collected for Western Blot analysis. […] Moreover, the activity of Rab27a in HeLa cells treated with or without 6J1 (1 μM) is examined with a GST-SHD pulldown assay.
Moreover, ATG5- or LC3-knockout HeLa cells are treated with or without 6J1 (1 μM) for 24 h. The supernatant is collected, and the concentration of the extracellular vesicle is determined using a Nanosight nanoparticle analyzer. The exosomes are also collected and subjected to western blot analysis of the EVs marker and PD-L1 in FIG. 7a. The live cells are also labeled with an anti-PD-L1 antibody in FIG. 7b and subjected to flow cytometry analysis in FIG. 7c. […] In addition, inventors assess whether other autophagy-related genes, e.g., ATG4B, ATG7, Beclin1, and Vps34 are involved in 6J1-mediated exosomal PD-L1 secretion. ATG4B-, ATG7-, Beclin1-, or VPS34-knockout HeLa cells are treated with or without 6J1 (1 μM) for 24 h. The supernatant is collected, and the concentration of extracellular vesicle is determined using a Nanosight nanoparticle analyzer. The exosomes are also collected and subjected to western blot analysis of the EVs marker and PD-L1 in FIG. 7d. The live cells are also labeled with an anti-PD-L1 antibody and subjected to flow cytometry analysis in FIG. 7e.

CCCCC[C@@H](O)[C@H]1C(=O)O[C@H](C)[C@@H](O)/C=C/C=C/C=C/C=C/C=C(\C)[C@@H](O)C[C@H](O)C[C@H](O)C[C@H](O)C[C@H](O)C[C@H](O)C[C@@H]1O [Filipin III]
internalization of PD-L1 (PD-L1 [1]): does not affect the internalization of PD-L1

O=C(C=Cc1ccc(C=CC(=O)Nc2ccc(C3=NCCN3)cc2)cc1)Nc1ccc(C2=NCCN2)cc1 [GW4869, reference compound]
effect of GW4869 on 6J1-mediated reduction of cell surface PD-L1 (PD-L1 [2]): does not impair 6J1-mediated reduction of cell surface PD-L1 | effect of GW4869 on 6J1-induced exosome secretion (4T1 cells): inhibits exosome secretion of 4T1 cells induced by 6J1

O=C1NC(=NS(=O)(=O)c2cccc3ccccc23)S/C1=C\c1ccc(Br)cc1 [Pitstop2]
internalization of PD-L1 (PD-L1 [1]): blocks the internalization of PD-L1

CCC(=O)N1CCN(c2ccc(-n3c(=O)ccc4cnc5ccc(-c6cnc7ccccc7c6)cc5c43)cc2C(F)(F)F)CC1 [Torin1]
total PD-L1 level in cells (PD-L1 [3]): little effect | exosomal PD-L1 level (PD-L1 [3]): little effect

CO/C1=C\C(C)=C\[C@@H](C)[C@@H](O)[C@@H](C)C/C(C)=C/C=C/[C@H](OC)[C@@H]([C@@H](C)[C@@H](O)[C@H](C)[C@@]2(O)C[C@@H](O)[C@H](C)[C@@H](C(C)C)O2)OC1=O [bafilomycin A1]
total PD-L1 level in cells (PD-L1 [3]): markedly increases | exosomal PD-L1 level (PD-L1 [3]): markedly increases

C[C@H](CCC(=O)O)C[C@H](C)C[C@H](C)C(=O)/C=C(\O)[C@H](C)C[C@H](C)C/C=C/[C@@H](C)[C@@H](O)[C@@H](C)[C@@H](O)C[C@@H]1CC[C@@](C)([C@H]2CC[C@@](C)([C@@H](C)O)O2)O1 [ionomycin]
exosomal PD-L1 level (PD-L1 [3]): markedly increases the exosomal PD-L1 level; also recorded: markedly increased exosomal PD-L1 level
